The nature of the data set: Absorption spectrum measured in solution.
The mark [1] stands for this setting: molar extinction coefficient at λmax, solvent as given for λmax.

ε, λ1/2-λ1/10 and λmax data for 17 compounds are collected here from patent publication US20060280894A1, “Metal complexes as light-absorbing compounds in the information layer of optical data carriers” (priority 2003, published 2006).

Where two headings read alike, the source gives them in different places. Marks after values point to notes of the source that are not given here.

In the case of `CCN(CC)c1ccc(N=Nc2nc(C#N)c(C#N)n2C)c([N-]P(=O)(OCC(F)(F)C(F)F)OCC(F)(F)C(F)F)c1.CCN(CC)c1ccc(N=Nc2nc(C#N)c(C#N)n2C)c([N-]P(=O)(OCC(F)(F)C(F)F)OCC(F)(F)C(F)F)c1.[Co+2]` [Example 3], the ε was found to be 92203 L/mol/cm, the λ1/2-λ1/10 worked out at 33 nm and the λmax is 538^5) nm.
The like results for `CCN(CC)c1ccc(N=Nc2nc(C#N)c(C#N)n2C)c([N-]P(=O)(OCC(F)(F)C(F)F)OCC(F)(F)C(F)F)c1.CCN(CC)c1ccc(N=Nc2nc(C#N)c(C#N)n2C)c([N-]P(=O)(OCC(F)(F)C(F)F)OCC(F)(F)C(F)F)c1.[Cu+2]` [Example 4] were, in that order, 88071 L/mol/cm, 29 nm and 533^5) nm.
For `CCN(CC)c1ccc(N=Nc2nc(C#N)c(C#N)[nH]2)c([N-]P(=O)(OCC(F)(F)C(F)F)OCC(F)(F)C(F)F)c1.CCN(CC)c1ccc(N=Nc2nc(C#N)c(C#N)[nH]2)c([N-]P(=O)(OCC(F)(F)C(F)F)OCC(F)(F)C(F)F)c1.[Ni+2]` [Example 5], the ε was found to be 70893 L/mol/cm, the λ1/2-λ1/10 is reported as 21 nm and the λmax is given as 510^4) nm.
`CCCNS(=O)(=O)[N-]c1cc(N(CC)CC)ccc1N=Nc1nc(C#N)c(C#N)[nH]1.CCCNS(=O)(=O)[N-]c1cc(N(CC)CC)ccc1N=Nc1nc(C#N)c(C#N)[nH]1.[Ni+2]` [Example 6] gave a ε under setting [1] of 34523 L/mol/cm. This compound had a λ1/2-λ1/10 (on the long wavelength flank) of 21 nm.
The compound `CCN(CC)c1ccc(N=Nc2nc(-c3ccccc3)ns2)c([N-]S(=O)(=O)N(C)C)c1.CCN(CC)c1ccc(N=Nc2nc(-c3ccccc3)ns2)c([N-]S(=O)(=O)N(C)C)c1.[Ni+2]` [Example 11] showed a ε of 86514 L/mol/cm and a λmax of 530 nm.
In turn, `CCN(CC)c1ccc(N=Nc2nc(-c3ccccc3)ns2)c([N-]S(=O)(=O)N(C)C)c1.CCN(CC)c1ccc(N=Nc2nc(-c3ccccc3)ns2)c([N-]S(=O)(=O)N(C)C)c1.[Co+2]` [Example 12] returned a ε of 92750 L/mol/cm, a λ1/2-λ1/10 of 32 nm and a λmax of 551 nm.
The corresponding values for `CCN(CC)c1ccc(N=Nc2nc(C#N)c(C#N)n2C)c([N-]S(=O)(=O)N(C)C)c1.CCN(CC)c1ccc(N=Nc2nc(C#N)c(C#N)n2C)c([N-]S(=O)(=O)N(C)C)c1.[Ni+2]` [Example 15] are 107238 L/mol/cm, 21 nm and 540 nm.
`CCN(CC)c1ccc(N=Nc2nc(C#N)c(C#N)n2C)c([N-]S(=O)(=O)N(C)C)c1.CCN(CC)c1ccc(N=Nc2nc(C#N)c(C#N)n2C)c([N-]S(=O)(=O)N(C)C)c1.[Co+2]` [Example 16] showed a ε of 94990 L/mol/cm, a λ1/2-λ1/10 of 33 nm and a λmax of 543 nm.
Take `CCN(CC)c1ccc(N=Nc2nc(C#N)c(C#N)n2C)c([N-]S(=O)(=O)N(C)C)c1.CCN(CC)c1ccc(N=Nc2nc(C#N)c(C#N)n2C)c([N-]S(=O)(=O)N(C)C)c1.[Zn+2]` [Example 17]: the ε was determined as 111931 L/mol/cm and the λ1/2-λ1/10 turned out to be 12 nm.
On to `CCN(CC)c1ccc(N=Nc2nc(C#N)c(C#N)[nH]2)c([N-]S(=O)(=O)N(C)C)c1.CCN(CC)c1ccc(N=Nc2nc(C#N)c(C#N)[nH]2)c([N-]S(=O)(=O)N(C)C)c1.[Ni+2]` [Example 18], for which the λmax (in methanol) is 518^4) nm. The ε under setting [1] turned out to be 92143 L/mol/cm. The compound also came in with a λ1/2-λ1/10 (on the long wavelength flank) of 21 nm.
For the compound `CCN(CC)c1ccc(N=Nc2nc(-c3ccccc3)ns2)c([N]([Ni][N](c2cc(N(CC)CC)ccc2N=Nc2nc(-c3ccccc3)ns2)P(=O)(OC)c2ccccc2)P(=O)(OC)c2ccccc2)c1` (centres unmarked) [Example 23], the ε was determined as 90126 L/mol/cm, the λ1/2-λ1/10 is given as 61 nm and the λmax is given as 538^5) nm.
As for `CCN(CC)c1ccc(N=Nc2nnc(C)s2)c([N]([Ni][N](c2cc(N(CC)CC)ccc2N=Nc2nnc(C)s2)S(=O)(=O)N(C)C)S(=O)(=O)N(C)C)c1` [Example 29], the λmax (in methylene chloride) was found to be 554 nm. The compound also gave a ε under setting [1] of 84070 L/mol/cm. Moreover, the λ1/2-λ1/10 (on the long wavelength flank) is on record as 26 nm.
`CCN(CC)c1ccc(N=Nc2nnc(C)s2)c([N]([Co][N](c2cc(N(CC)CC)ccc2N=Nc2nnc(C)s2)S(=O)(=O)N(C)C)S(=O)(=O)N(C)C)c1` [Example 30] showed a λmax (in methylene chloride) of 554 nm.
As for `CCN(CC)c1ccc(N=Nc2nc(-c3ccccc3)ns2)c([N]([Ni][N](c2cc(N(CC)CC)ccc2N=Nc2nc(-c3ccccc3)ns2)S(=O)(=O)NCC(F)(F)C(F)F)S(=O)(=O)NCC(F)(F)C(F)F)c1` [Example 31], the λmax (in methylene chloride) turned out to be 556 nm.
Compound `CCN(CC)c1cc([N]([Ni][N](c2cc(N(CC)CC)c(OC)cc2N=Nc2nc(-c3ccccc3)ns2)S(=O)(=O)N(C)C)S(=O)(=O)N(C)C)c(N=Nc2nc(-c3ccccc3)ns2)cc1OC` [Example 35] had a λmax of 544 nm.
For `CCN(CC)c1cc([N]([Ni][N](c2cc(N(CC)CC)c(C)cc2N=Nc2nc(-c3ccccc3)ns2)S(=O)(=O)N(C)C)S(=O)(=O)N(C)C)c(N=Nc2nc(-c3ccccc3)ns2)cc1C` [Example 36], the λmax is 552^5) nm.
On to `CCN(CC)c1cc([N]([Co][N](c2cc(N(CC)CC)c(C)cc2N=Nc2nc(-c3ccccc3)ns2)S(=O)(=O)N(C)C)S(=O)(=O)N(C)C)c(N=Nc2nc(-c3ccccc3)ns2)cc1C` [Example 38], for which the λmax is 554^5) nm.
